This note sets out measurements from US20230228744A1, “DRY EYE DISEASE BIOMARKERS AND THEIR USE FOR TREATMENT” (Aldeyra Therapeutics, Inc., priority 2020, published 2023).

This assay is described as follows: Exploratory aldehyde trapping studies in PBS and ACN/H2O (MS). The format is biochemical. The conditions noted are these: 10 μM aldehyde, 1 mM trapping reagent, PBS or 50/50 ACN/H2O. On the procedure: Semicarbazide (SCZ), glutathione (GSH), cysteine, and N-acetyl cysteine were used as trapping agents with the aldehydes 4-hydroxynonenal (4-HNE), malondialdehyde, acetaldehyde, hexanal, pentanal, and decanal. 10 μM of aldehyde was mixed with 1 mM of trapping reagent in either PBS or 50/50 ACN/H2O.

Take `N[C@@H](CCC(=O)N[C@@H](CS)C(=O)NCC(=O)O)C(=O)O` [glutathione]: the “trapping of aldehydes as judged by MS” value is “appeared to trap aldehydes”.
On to `NNC(N)=O` [semicarbazide, Semicarbazide], for which the “trapping effectiveness, comparison of trapping agents” value was “more effective than GSH” and the “trapping of aldehydes as judged by MS” value is recorded as “appeared to trap aldehydes”.
